Where a SMILES comes first, the peptide text is derived from it.
Legend:
Type in all cases: cell-based
standard ESKAPE strains = conditions: broth dilution (CLSI), MHB, 37 °C, 16–20 h; range over all standard strains
Description: The ESKAPE pathogens represent the main threat to public health concerning antimicrobial resistance. Therefore, we first evaluated the antimicrobial activities of Ctriporin and its analogs against the standard ESKAPE strains. The minimum inhibitory concentration (MIC) was chosen as the index for the evaluation of each peptide’s activity. […] Note that the MICs of CM4 and CM7 are 4–32 and 8–32 μg/mL, respectively, indicating the existence of significant bacterial species deviations for the antimicrobial activity of these peptides. In addition, the replacement of specific residues, especially Pro^7, may harm the antimicrobial activities of the peptide.
(§1) The standard strains, including S. aureus ATCC29213 and ATCC25923, E. faecalis ATCC29212, E. coli ATCC25922 and ATCC35218, A. baumannii ATCC19606, K. pneumoniae ATCC700603, and P. aeruginosa ATCC27853, were purchased from the China Center of Type Culture Collection (CCTCC). The clinical strains of the ESKAPE pathogens were isolated from the affiliated hospitals of Hubei University of Medicine. All of them were stored at −80 °C before use. The drug sensitivities of the clinical strains were determined by the Kirby–Bauer test.
(§2) The MICs were determined using the broth dilution method according to the guidelines of the Clinical and Laboratory Standards Institute (CLSI), as described in the previous studies. Briefly, the bacterial cells were incubated in Mueller–Hinton broth (MHB, Oxoid, Basingstoke, UK) at 37 °C and 150 rpm to the mid-growth phase and diluted to achieve a final concentration of 5 × 10^5 colony-forming units per milliliter (CFU/mL). Then, the cells were mixed with each peptide in different concentrations (1, 2, 4, 8, 16, 32, and 64 μg/mL). […] All experiments were repeated at least three times.

E. coli ATCC35218 = assay: MIC, broth dilution, standard strain; conditions: broth dilution (CLSI), MHB, 5 × 10^5 CFU/mL, 37 °C, 16–20 h, OD630, repeated at least three times
Description: as §1, §2

K. pneumoniae ATCC700603 = assay: MIC, broth dilution, standard strain; conditions: broth dilution (CLSI), MHB, 5 × 10^5 CFU/mL, 37 °C, 16–20 h, OD630, repeated at least three times
Description: as §1, §2

S. aureus ATCC29213 = assay: MIC, broth dilution, standard strain; conditions: broth dilution (CLSI), MHB, 5 × 10^5 CFU/mL, 37 °C, 16–20 h, OD630, repeated at least three times
Description: as §1, §2

S. aureus ATCC25923 = assay: MIC, broth dilution, standard strain; conditions: broth dilution (CLSI), MHB, 5 × 10^5 CFU/mL, 37 °C, 16–20 h, OD630, repeated at least three times
Description: as §1, §2

P. aeruginosa ATCC27853 = assay: MIC, broth dilution, standard strain; conditions: broth dilution (CLSI), MHB, 5 × 10^5 CFU/mL, 37 °C, 16–20 h, OD630, repeated at least three times
Description: as §1, §2

E. coli ATCC25922 = assay: MIC, broth dilution, standard strain; conditions: broth dilution (CLSI), MHB, 5 × 10^5 CFU/mL, 37 °C, 16–20 h, OD630, repeated at least three times
Description: as §1, §2

A. baumannii ATCC19606 = assay: MIC, broth dilution, standard strain; conditions: broth dilution (CLSI), MHB, 5 × 10^5 CFU/mL, 37 °C, 16–20 h, OD630, repeated at least three times
Description: as §1, §2

E. faecium ATCC29212 = assay: MIC, broth dilution, standard strain; conditions: broth dilution (CLSI), MHB, 5 × 10^5 CFU/mL, 37 °C, 16–20 h, OD630, repeated at least three times
Description: as §1, §2

[1] = tested on: clinical isolates of CRE and multidrug-resistant (MDR) A. baumannii; conditions: broth dilution (CLSI), MHB
Description: To further evaluate the antimicrobial potential of CM5 and CM6, the MICs of these two peptides, as well as the parent peptide Ctriporin, were determined against clinical antibiotic-resistant isolates of ESKAPE strains. […] Note that CRE and MDR A. baumannii are listed at the top of the pathogens threatening public health. Compared with the parent peptide Ctriporin, eight to sixteen times improvement in terms of antimicrobial activity was obtained through our peptide design strategy.
as §2

E. faecium 898 = assay: MIC, broth dilution, clinical isolate; conditions: MDR clinical isolate; broth dilution (CLSI), MHB, 5 × 10^5 CFU/mL, 37 °C, 16–20 h, OD630
Description: as §1, §2

S. epidermidis 6943 = assay: MIC, broth dilution, clinical isolate; conditions: MRSE clinical isolate; broth dilution (CLSI), MHB, 5 × 10^5 CFU/mL, 37 °C, 16–20 h, OD630
Description: as §1, §2

A. baumannii 19295 = assay: MIC, broth dilution, clinical isolate; conditions: CRE/MDR clinical isolate; broth dilution (CLSI), MHB, 5 × 10^5 CFU/mL, 37 °C, 16–20 h, OD630
Description: as §1, §2

S. epidermidis 9092 = assay: MIC, broth dilution, clinical isolate; conditions: MRSE clinical isolate; broth dilution (CLSI), MHB, 5 × 10^5 CFU/mL, 37 °C, 16–20 h, OD630
Description: as §1, §2

P. aeruginosa 9014 = assay: MIC, broth dilution, clinical isolate; conditions: CRE/MDR clinical isolate; broth dilution (CLSI), MHB, 5 × 10^5 CFU/mL, 37 °C, 16–20 h, OD630
Description: as §1, §2

A. baumannii 19462 = assay: MIC, broth dilution, clinical isolate; conditions: CRE/MDR clinical isolate; broth dilution (CLSI), MHB, 5 × 10^5 CFU/mL, 37 °C, 16–20 h, OD630
Description: as §1, §2

S. aureus 891 = assay: MIC, broth dilution, clinical isolate; conditions: MRSA clinical isolate; broth dilution (CLSI), MHB, 5 × 10^5 CFU/mL, 37 °C, 16–20 h, OD630
Description: as §1, §2

K. pneumoniae 9126 = assay: MIC, broth dilution, clinical isolate; conditions: CRE clinical isolate; broth dilution (CLSI), MHB, 5 × 10^5 CFU/mL, 37 °C, 16–20 h, OD630
Description: as §1, §2

E. coli 2678 = assay: MIC, broth dilution, clinical isolate; conditions: ESBL clinical isolate; broth dilution (CLSI), MHB, 5 × 10^5 CFU/mL, 37 °C, 16–20 h, OD630
Description: as §1, §2

S. capitis 3255 = assay: MIC, broth dilution, clinical isolate; conditions: MRSC clinical isolate; broth dilution (CLSI), MHB, 5 × 10^5 CFU/mL, 37 °C, 16–20 h, OD630
Description: as §1, §2

E. coli 2687 = assay: MIC, broth dilution, clinical isolate; conditions: ESBL clinical isolate; broth dilution (CLSI), MHB, 5 × 10^5 CFU/mL, 37 °C, 16–20 h, OD630
Description: as §1, §2

A. baumannii 19618 = assay: MIC, broth dilution, clinical isolate; conditions: CRE/MDR clinical isolate; broth dilution (CLSI), MHB, 5 × 10^5 CFU/mL, 37 °C, 16–20 h, OD630
Description: as §1, §2

S. aureus 9124 = assay: MIC, broth dilution, clinical isolate; conditions: MRSA clinical isolate; broth dilution (CLSI), MHB, 5 × 10^5 CFU/mL, 37 °C, 16–20 h, OD630
Description: as §1, §2

[2] = tested on: human red blood cells (hRBC); assay: Hemolytic activity determination; conditions: 2% (v/v) hRBC, 37 °C, 1 h; for curve of hemolysis% vs. peptide concentration (Figure 2): 0–512 μg/mL peptide, compared in words; for Hemolysis% at 256 μg/mL: 256 μg/mL peptide, OD540, 1% Triton X-100 = 100%, average ± standard error of three independent experiments
Description: Figure 2 Hemolytic activities of Ctriporin and its analogs against human red blood cells (hRBC). Hemolytic activities of Ctriporin (solid circle), CM1 (open circle), CM2 (open square), CM3 (upward triangle), CM4 (downward triangle), CM5 (half solid circle), CM6 (half solid square), and CM7 (half solid triangle), were measured against 2% (v/v) human red blood cells. The peptide concentrations are 0, 2, 4, 8, 16, 32, 64, 128, 256, and 512 μg/mL. The cells treated with 1% Triton X-100 were treated as 100% hemolysis. All experiments were repeated three times, and the data shown are the average ± standard error.
The hemolytic activities of the peptides were determined against human red blood cells (hRBCs). As described, sodium citrate-anticoagulated hRBCs were washed three times with 0.9% sodium chloride and diluted to a final concentration of 4% (v/v). Then, an equal volume of hRBC solutions was mixed with an equal volume of each peptide in a series of concentrations (0, 2, 4, 8, 16, 32, 64, 128, 256, and 512 μg/mL). After co-incubation at 37 °C for 1 h, the degree of hemolysis of the peptides was determined by detecting the release of hemoglobin from the damaged hRBCs by measuring the optical density at 540 nm (OD540). hRBCs in 0.9% sodium chloride and 1% Triton X-100 were considered 0% and 100% hemolysis, respectively. The results shown are the average ± standard error of data derived from three independent experiments. The percent hemolysis was calculated according to the following equation [53, 54]:Hemolysis (%) = 100 × (Asample − Ablank)/(Apositive − Ablank)

SMILES	MICs against the ESKAPE pathogens (range over the standard strains of Table 2) (standard ESKAPE strains) [µg/mL]	MICs (E. coli ATCC35218) [µg/mL]	MICs (K. pneumoniae ATCC700603) [µg/mL]	MICs (S. aureus ATCC29213) [µg/mL]	MICs (S. aureus ATCC25923) [µg/mL]	MICs (P. aeruginosa ATCC27853) [µg/mL]	MICs (E. coli ATCC25922) [µg/mL]	MICs (A. baumannii ATCC19606) [µg/mL]	MICs (E. faecium ATCC29212) [µg/mL]	MIC values against clinical isolates of CRE and MDR A. baumannii [1] [µg/mL]	MICs (E. faecium 898) [µg/mL]	MICs (S. epidermidis 6943) [µg/mL]	MICs (A. baumannii 19295) [µg/mL]	MICs (S. epidermidis 9092) [µg/mL]	MICs (P. aeruginosa 9014) [µg/mL]	MICs (A. baumannii 19462) [µg/mL]	MICs (S. aureus 891) [µg/mL]	MICs (K. pneumoniae 9126) [µg/mL]	MICs (E. coli 2678) [µg/mL]	MICs (S. capitis 3255) [µg/mL]	also measured
CC[C@H](C)[C@H](NC(=O)[C@H](C)NC(=O)[C@H](CCCCN)NC(=O)[C@@H]1CCCN1C(=O)[C@@H](NC(=O)[C@H](CC(C)C)NC(=O)[C@H](CCCCN)NC(=O)[C@H](Cc1c[nH]c2ccccc12)NC(=O)[C@H](CC(C)C)NC(=O)[C@@H](N)Cc1ccccc1)[C@@H](C)CC)C(=O)N[C@@H](CCCCN)C(=O)N[C@@H](CCCCN)C(=O)N[C@H](C(=O)N[C@@H](CCCCN)C(=O)N[C@@H](CO)C(=O)N[C@@H](CC(C)C)C(=O)N[C@H](C(=O)N[C@@H](CCCCN)C(=O)N[C@@H](CCCCN)C(N)=O)[C@@H](C)CC)C(C)C [CM5] (H-FLWKLIPKAIKKVKSLIKK-NH2)	2 to 8	4	8	4	4	4	8	2	8	2	4	4	2	4	8	2	4	16	8	2	MICs (E. coli 2687): 8 µg/mL; MICs (A. baumannii 19618): 2 µg/mL; MICs (S. aureus 9124): 8 µg/mL; curve of hemolysis% vs. peptide concentration (Figure 2) [2]: decreased dramatically compared with Ctriporin; Hemolysis% at 256 μg/mL [2]: 9.8 ± 0.6%
CC[C@H](C)[C@H](NC(=O)[C@H](C)NC(=O)[C@H](CCCCN)NC(=O)[C@@H]1CCCN1C(=O)[C@@H](NC(=O)[C@H](CC(C)C)NC(=O)[C@H](CCCCN)NC(=O)[C@H](Cc1c[nH]c2ccccc12)NC(=O)[C@H](CC(C)C)NC(=O)[C@@H](N)Cc1ccccc1)[C@@H](C)CC)C(=O)N[C@@H](CCCCN)C(=O)N[C@@H](CCCCN)C(=O)N[C@H](C(=O)N[C@@H](CCCCN)C(=O)N[C@@H](CCCCN)C(=O)N[C@@H](CC(C)C)C(=O)N[C@H](C(=O)N[C@@H](CCCCN)C(=O)N[C@@H](CCCCN)C(N)=O)[C@@H](C)CC)C(C)C [CM6] (H-FLWKLIPKAIKKVKKLIKK-NH2)	4 to 8	8	8	8	8	4	8	4	8	2	4	4	2	4	8	2	8	16	8	2	MICs (E. coli 2687): 8 µg/mL; MICs (A. baumannii 19618): 2 µg/mL; MICs (S. aureus 9124): 8 µg/mL; curve of hemolysis% vs. peptide concentration (Figure 2) [2]: decreased dramatically compared with Ctriporin; Hemolysis% at 256 μg/mL [2]: 8.1 ± 1.9%
